Test results published in the NIST ThermoML archive (doi:10.1021/je200637v).
Numbers after ± are expanded uncertainties.

Assay: activity coefficient (dimensionless); of the first substance listed, at infinite dilution; xn = mol fraction of the nth substance listed
Conditions: Liquid, Chromatography, x1 = 0

| Structure (SMILES) | activity coefficient (322.85 K) | activity coefficient (332.65 K) | activity coefficient (343.15 K) |
| --- | --- | --- | --- |
| C=CCCCC [hex-1-ene] + CCCC[N+](C)(CCCC)CCCC.O=S(=O)([N-]S(=O)(=O)C(F)(F)F)C(F)(F)F | 4.31 ± 0.2 | 4.4 ± 0.2 | 4.25 ± 0.19 |
| CCCCCC [hexane] + CCCCCCCCCC[N+](C)(C)C.O=S(=O)([N-]S(=O)(=O)C(F)(F)F)C(F)(F)F | 4.2 ± 0.19 | 4.1 ± 0.18 | 3.93 ± 0.17 |
| CCCCCC [hexane] + CCCCCCCC[N+](C)(C)C.O=S(=O)([N-]S(=O)(=O)C(F)(F)F)C(F)(F)F | 6.21 ± 0.28 | 5.83 ± 0.27 | 5.36 ± 0.24 |
| CCCCCC [hexane] + CCCCCCCC[N+](CCCCCCCC)(CCCCCCCC)CCCCCCCC.O=S(=O)([N-]S(=O)(=O)C(F)(F)F)C(F)(F)F | 1.3 ± 0.04 | 1.29 ± 0.04 | 1.28 ± 0.04 |
| CCCCCC [hexane] + CCCC[N+](C)(CCCC)CCCC.O=S(=O)([N-]S(=O)(=O)C(F)(F)F)C(F)(F)F | 6.75 ± 0.31 | 6.75 ± 0.31 | 6.44 ± 0.29 |
| C=O [methanal] + CCCCCCCCCC[N+](C)(C)C.O=S(=O)([N-]S(=O)(=O)C(F)(F)F)C(F)(F)F | 0.09 ± 0.04 | 0.1 ± 0.04 | 0.11 ± 0.04 |
| C=O [methanal] + CCCCCCCC[N+](C)(C)C.O=S(=O)([N-]S(=O)(=O)C(F)(F)F)C(F)(F)F | 0.1 ± 0.04 | 0.11 ± 0.04 | 0.12 ± 0.04 |
| C=O [methanal] + CCCCCCCC[N+](CCCCCCCC)(CCCCCCCC)CCCCCCCC.O=S(=O)([N-]S(=O)(=O)C(F)(F)F)C(F)(F)F | 0.07 | 0.08 | 0.09 ± 0.04 |
| C=O [methanal] + CCCC[N+](C)(CCCC)CCCC.O=S(=O)([N-]S(=O)(=O)C(F)(F)F)C(F)(F)F | 0.11 ± 0.04 | 0.12 ± 0.04 | 0.13 ± 0.04 |
| CO [methanol] + CCCCCCCCCC[N+](C)(C)C.O=S(=O)([N-]S(=O)(=O)C(F)(F)F)C(F)(F)F | 0.79 ± 0.03 | 0.91 ± 0.03 | 0.66 ± 0.03 |
| CO [methanol] + CCCCCCCC[N+](C)(C)C.O=S(=O)([N-]S(=O)(=O)C(F)(F)F)C(F)(F)F | 0.92 ± 0.03 | 0.78 ± 0.03 | 0.81 ± 0.03 |
| CO [methanol] + CCCCCCCC[N+](CCCCCCCC)(CCCCCCCC)CCCCCCCC.O=S(=O)([N-]S(=O)(=O)C(F)(F)F)C(F)(F)F | 0.65 ± 0.03 | 0.76 ± 0.03 | 0.82 ± 0.03 |
| CO [methanol] + CCCC[N+](C)(CCCC)CCCC.O=S(=O)([N-]S(=O)(=O)C(F)(F)F)C(F)(F)F | 0.96 ± 0.03 | 0.75 ± 0.03 | 0.88 ± 0.03 |
| CC1CCCCC1 [methylcyclohexane] + CCCCCCCCCC[N+](C)(C)C.O=S(=O)([N-]S(=O)(=O)C(F)(F)F)C(F)(F)F | 3.57 ± 0.16 | 3.57 ± 0.16 | 3.39 ± 0.15 |
| CC1CCCCC1 [methylcyclohexane] + CCCCCCCC[N+](C)(C)C.O=S(=O)([N-]S(=O)(=O)C(F)(F)F)C(F)(F)F | 5.23 ± 0.24 | 4.93 ± 0.23 | 4.6 ± 0.21 |
| CC1CCCCC1 [methylcyclohexane] + CCCCCCCC[N+](CCCCCCCC)(CCCCCCCC)CCCCCCCC.O=S(=O)([N-]S(=O)(=O)C(F)(F)F)C(F)(F)F | 1.07 ± 0.03 | 1.06 ± 0.03 | 1.05 ± 0.03 |
| CC1CCCCC1 [methylcyclohexane] + CCCC[N+](C)(CCCC)CCCC.O=S(=O)([N-]S(=O)(=O)C(F)(F)F)C(F)(F)F | 5.92 ± 0.27 | 5.91 ± 0.27 | 5.58 ± 0.26 |
| CC1CCCC1 [methylcyclopentane] + CCCCCCCCCC[N+](C)(C)C.O=S(=O)([N-]S(=O)(=O)C(F)(F)F)C(F)(F)F | 2.99 ± 0.14 | 2.99 ± 0.14 | 2.83 ± 0.13 |
| CC1CCCC1 [methylcyclopentane] + CCCCCCCC[N+](C)(C)C.O=S(=O)([N-]S(=O)(=O)C(F)(F)F)C(F)(F)F | 4.18 ± 0.19 | 3.95 ± 0.18 | 3.67 ± 0.17 |
| CC1CCCC1 [methylcyclopentane] + CCCCCCCC[N+](CCCCCCCC)(CCCCCCCC)CCCCCCCC.O=S(=O)([N-]S(=O)(=O)C(F)(F)F)C(F)(F)F | 0.98 ± 0.03 | 0.97 ± 0.03 | 0.97 ± 0.03 |
| CC1CCCC1 [methylcyclopentane] + CCCC[N+](C)(CCCC)CCCC.O=S(=O)([N-]S(=O)(=O)C(F)(F)F)C(F)(F)F | 4.75 ± 0.22 | 4.74 ± 0.22 | 4.5 ± 0.21 |
| C[N+](=O)[O-] [nitromethane] + CCCCCCCCCC[N+](C)(C)C.O=S(=O)([N-]S(=O)(=O)C(F)(F)F)C(F)(F)F | 0.56 ± 0.03 | 0.58 ± 0.03 | 0.55 ± 0.03 |
| C[N+](=O)[O-] [nitromethane] + CCCCCCCC[N+](C)(C)C.O=S(=O)([N-]S(=O)(=O)C(F)(F)F)C(F)(F)F | 0.6 ± 0.03 | 0.58 ± 0.03 | 0.55 ± 0.03 |

| Structure (SMILES) | activity coefficient (322.85 K) | activity coefficient (332.65 K) | activity coefficient (343.15 K) |
| --- | --- | --- | --- |
| C[N+](=O)[O-] [nitromethane] + CCCCCCCC[N+](CCCCCCCC)(CCCCCCCC)CCCCCCCC.O=S(=O)([N-]S(=O)(=O)C(F)(F)F)C(F)(F)F | 0.63 ± 0.03 | 0.61 ± 0.03 | 0.59 ± 0.03 |
| C[N+](=O)[O-] [nitromethane] + CCCC[N+](C)(CCCC)CCCC.O=S(=O)([N-]S(=O)(=O)C(F)(F)F)C(F)(F)F | 0.65 ± 0.03 | 0.65 ± 0.03 | 0.62 ± 0.03 |
| CCCCCCCCC [nonane] + CCCCCCCCCC[N+](C)(C)C.O=S(=O)([N-]S(=O)(=O)C(F)(F)F)C(F)(F)F | 8.87 ± 0.41 | 8.63 ± 0.4 | 7.61 ± 0.35 |
| CCCCCCCCC [nonane] + CCCCCCCC[N+](C)(C)C.O=S(=O)([N-]S(=O)(=O)C(F)(F)F)C(F)(F)F | 15.9 ± 0.74 | 14.8 ± 0.68 | 13.4 ± 0.62 |
| CCCCCCCCC [nonane] + CCCCCCCC[N+](CCCCCCCC)(CCCCCCCC)CCCCCCCC.O=S(=O)([N-]S(=O)(=O)C(F)(F)F)C(F)(F)F | 2.19 ± 0.1 | 2.14 ± 0.1 | 2.09 ± 0.09 |
| CCCCCCCCC [nonane] + CCCC[N+](C)(CCCC)CCCC.O=S(=O)([N-]S(=O)(=O)C(F)(F)F)C(F)(F)F | 16.5 ± 0.76 | 16.1 ± 0.74 | 15 ± 0.69 |
| CCCCCCCC [octane] + CCCCCCCCCC[N+](C)(C)C.O=S(=O)([N-]S(=O)(=O)C(F)(F)F)C(F)(F)F | 6.53 ± 0.3 | 6.41 ± 0.29 | 6.1 ± 0.28 |
| CCCCCCCC [octane] + CCCCCCCC[N+](C)(C)C.O=S(=O)([N-]S(=O)(=O)C(F)(F)F)C(F)(F)F | 11 ± 0.51 | 10.3 ± 0.47 | 9.47 ± 0.43 |
| CCCCCCCC [octane] + CCCCCCCC[N+](CCCCCCCC)(CCCCCCCC)CCCCCCCC.O=S(=O)([N-]S(=O)(=O)C(F)(F)F)C(F)(F)F | 1.73 ± 0.07 | 1.71 ± 0.07 | 1.69 ± 0.07 |
| CCCCCCCC [octane] + CCCC[N+](C)(CCCC)CCCC.O=S(=O)([N-]S(=O)(=O)C(F)(F)F)C(F)(F)F | 11.6 ± 0.53 | 11.5 ± 0.53 | 10.8 ± 0.5 |
| CCCC(C)=O [pentan-2-one] + CCCCCCCCCC[N+](C)(C)C.O=S(=O)([N-]S(=O)(=O)C(F)(F)F)C(F)(F)F | 0.44 ± 0.03 | 0.47 ± 0.03 | 0.47 ± 0.03 |
| CCCC(C)=O [pentan-2-one] + CCCCCCCC[N+](C)(C)C.O=S(=O)([N-]S(=O)(=O)C(F)(F)F)C(F)(F)F | 0.57 ± 0.03 | 0.57 ± 0.03 | 0.57 ± 0.03 |
| CCCC(C)=O [pentan-2-one] + CCCCCCCC[N+](CCCCCCCC)(CCCCCCCC)CCCCCCCC.O=S(=O)([N-]S(=O)(=O)C(F)(F)F)C(F)(F)F | 0.35 ± 0.04 | 0.36 ± 0.04 | 0.37 ± 0.03 |
| CCCC(C)=O [pentan-2-one] + CCCC[N+](C)(CCCC)CCCC.O=S(=O)([N-]S(=O)(=O)C(F)(F)F)C(F)(F)F | 0.55 ± 0.03 | 0.58 ± 0.03 | 0.59 ± 0.03 |
| CCC(=O)CC [pentan-3-one] + CCCCCCCCCC[N+](C)(C)C.O=S(=O)([N-]S(=O)(=O)C(F)(F)F)C(F)(F)F | 0.41 ± 0.03 | 0.43 ± 0.03 | 0.44 ± 0.03 |
| CCC(=O)CC [pentan-3-one] + CCCCCCCC[N+](C)(C)C.O=S(=O)([N-]S(=O)(=O)C(F)(F)F)C(F)(F)F | 0.52 ± 0.03 | 0.53 ± 0.03 | 0.54 ± 0.03 |
| CCC(=O)CC [pentan-3-one] + CCCCCCCC[N+](CCCCCCCC)(CCCCCCCC)CCCCCCCC.O=S(=O)([N-]S(=O)(=O)C(F)(F)F)C(F)(F)F | 0.32 ± 0.04 | 0.33 ± 0.04 | 0.35 ± 0.04 |
| CCC(=O)CC [pentan-3-one] + CCCC[N+](C)(CCCC)CCCC.O=S(=O)([N-]S(=O)(=O)C(F)(F)F)C(F)(F)F | 0.5 ± 0.03 | 0.54 ± 0.03 | 0.56 ± 0.03 |
| CCCO [propan-1-ol] + CCCCCCCCCC[N+](C)(C)C.O=S(=O)([N-]S(=O)(=O)C(F)(F)F)C(F)(F)F | 1.48 ± 0.06 | 1.37 ± 0.05 | 1.21 ± 0.04 |
| CCCO [propan-1-ol] + CCCCCCCC[N+](C)(C)C.O=S(=O)([N-]S(=O)(=O)C(F)(F)F)C(F)(F)F | 1.7 ± 0.07 | 1.55 ± 0.06 | 1.37 ± 0.05 |
| CCCO [propan-1-ol] + CCCCCCCC[N+](CCCCCCCC)(CCCCCCCC)CCCCCCCC.O=S(=O)([N-]S(=O)(=O)C(F)(F)F)C(F)(F)F | 1.22 ± 0.04 | 1.14 ± 0.03 | 1.04 ± 0.03 |
| CCCO [propan-1-ol] + CCCC[N+](C)(CCCC)CCCC.O=S(=O)([N-]S(=O)(=O)C(F)(F)F)C(F)(F)F | 1.78 ± 0.08 | 1.64 ± 0.07 | 1.48 ± 0.06 |
